Results from US20050288347A1, “Certain triazole-based compounds, compositions, and uses thereof” (priority 2004, published 2005).
“Also recorded” adds a separate entry of the source.

Each compound was assayed on protein kinase (assay: HTS ATP-utilizing enzyme assay, off-chip mobility-shift format (Caliper HTS 250)). Conditions: test compound 10 μM; active = activity greater than three-sigma from the mean of the predominately inactive population for that enzyme.
Format: biochemical, human
Summary of the method: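 Kinase reactions ran 2.5 h at 20 to 22 °C with test compound at 10 μM, in a HEPES pH 7.5 master buffer containing Triton X-100 and BSA. Peptide substrate and phosphorylated product separated by mobility shift; inhibition normalized to DMSO (0%) and EDTA (100%) controls, with three-sigma thresholds for hits.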

Row | protein kinase against which the compound exhibits inhibitory activity (Table 3) | Structure (SMILES)
1 | GSK3-β and PKA and GSK3-α | O=C1c2ccccc2C(=O)N1CCSc1nnc(-c2cccc(C(F)(F)F)c2)[nH]1
2 | KIT and AURORA-A and PKA | CCCN(CCC)C(=O)CSc1nnc(-c2ccccc2O)n1-c1ccccc1OC
3 | AURORA-A | CNC(=O)CSc1nnc(-c2ccccc2O)n1-c1ccccc1OC
4 | FYN | CCn1c(SCC(=O)NNC(=O)Cc2ccccc2)nnc1-c1ccc(Cl)cc1
5 | AKT1 | O=c1[nH]c(CSc2nnc(-c3ccccc3O)n2CCc2ccccc2)nc2ccccc12
6 | MAPKALPK-2 and AKT1 | COc1ccc(-n2c(CNc3ccccc3Cl)nnc2SCc2ccc(Cl)cc2)cc1
7 | GSK3-β; also recorded: GSK3-α | COc1ccc(CCn2c(CCC3CCCC3)nnc2SCC=C(C)C)cc1OC
8 | GSK3-β; also recorded: GSK3-α | O=C(O)CCSc1nnc(-c2ccc(O)cc2)n1-c1cccc(Cl)c1
9 | MSK1 | CCc1ccc(OCc2nnc(SCCC(=O)O)n2CC)cc1
10 | AURORA-A | CCn1c(COc2cccc3ccccc23)nnc1SCCC(=O)O
11 | CHEK2; also recorded: AURORA-A | COc1ccc(-n2c(SCCC(=O)O)nnc2-c2ccc(NC(=O)c3ccccc3)cc2)cc1
12 | CDK1 | COc1ccc(-n2c(COc3ccccc3OC)nnc2SCCC(=O)O)cc1
13 | AURORA-A | CCn1c(COc2ccc(Br)cc2)nnc1SCCC(=O)O
14 | AURORA-A | Cc1cc(OCc2nnc(SCCC(=O)O)n2C)ccc1Cl
15 | c-TAK1 | CC(C)=CCSc1nnc(Cc2ccccc2)n1Cc1ccc(Cl)c(Cl)c1
16 | GSK3-α | CC(C)=CCSc1nnc(CCC2CCCC2)n1CCCN1CCOCC1
17 | AKT1 | COc1ccc(-n2c(CNc3ccc(F)cc3)nnc2SC)cc1
18 | AURORA-A | COc1ccccc1-n1c(SCC(=O)Nc2cccc(NC(=O)c3ccco3)c2)nnc1-c1ccccc1O
19 | c-TAK1 | CN(C)CCCSc1nnc(C2CCCC2)[nH]1
20 | GSK3-α | OCC(O)CSc1nnc(CCc2ccccc2)[nH]1 (stereo not drawn)
21 | PDGFRR-α; also recorded: AURORA-A | O=C(CSc1nnc(-c2cccnc2)n1Cc1ccccc1)NNC(=O)c1ccc(Br)cc1
22 | FYN and CSK | O=C(CSc1nnc(-c2ccccc2)n1Cc1ccccc1)NNC(=O)c1ccccc1O
23 | DAPK-1 | Cc1ccc(C(=O)NNC(=O)CSc2nnc(Cc3ccccc3)n2Cc2ccccc2)cc1
24 | PDGFRR-α and FYN and FLT-3 | COc1ccc(NCc2nnc(SCC(=O)NNC(=O)c3ccc(C)cc3)n2C)cc1
25 | FLT-3 | CCOC(=O)CCCSc1nnc(-c2ccc3[nH]c(C)c(C)c3c2)n1CC

Second part, the compound before the results:

Row | Structure (SMILES) | protein kinase against which the compound exhibits inhibitory activity (Table 3)
26 | C=CCSc1nnc(Cn2cnc3ccccc32)n1C | HCK
27 | CSCCc1nnc(SCC(O)C(F)(F)F)[nH]1 (stereo not drawn) | GSK3-α
28 | OC(CSc1nnc(-c2cccc(C(F)(F)F)c2)[nH]1)C(F)(F)F (stereo not drawn) | AURORA-A; also recorded: FLT-3; also recorded: GSK3-β
29 | COc1ccccc1-n1c(SCC(=O)N2CCCC2)nnc1-c1ccccc1O | PRAK
30 | CCOCCSc1nnc(-c2ccc([N+](=O)[O-])cc2)[nH]1 | FLT-3; also recorded: AURORA-A; also recorded: GSK3-α
31 | CCOCCSc1nnc(-c2cccc(C)c2)[nH]1 | AURORA-A; also recorded: FLT-3; also recorded: GSK3-β
32 | COc1ccccc1-n1c(SCCC(=O)O)nnc1-c1cccnc1 | AURORA-A
33 | COc1ccccc1-c1nnc(SCCC(=O)O)n1-c1cccc(Cl)c1 | CHEK2
34 | CCn1c(COc2ccc(OC)cc2)nnc1SCc1ccc(Cl)cc1 | CDK2-cyclinE
35 | OC(CSc1nnc(-c2ccc(Cl)c(Cl)c2)[nH]1)C(F)(F)F (stereo not drawn) | AURORA-A; also recorded: FLT-3; also recorded: GSK3-β
36 | OCC(O)CSc1nnc(-c2ccc(OC(F)(F)F)cc2)[nH]1 (stereo not drawn) | AURORA-A; also recorded: FLT-3; also recorded: DYRK2
37 | Cc1cc(C)nc(SCc2nnc(SCCC(=O)O)n2-c2ccccc2)n1 | CHEK2
38 | CCCCSc1nnc(-c2cccnc2)[nH]1 | AURORA-A; also recorded: FLT-3; also recorded: c-TAK1
39 | COc1ccccc1-n1c(SCCC(=O)O)nnc1C1CCCCC1 | GSK3-α
40 | CCn1c(COc2ccc(Cl)c(C)c2)nnc1SC(C)C | AKT1
41 | Clc1ccc(CSc2nnc(-c3ccncc3)n2Cc2ccco2)c(Cl)c1 | MSK2 and MSK1 and AKT3
42 | CCc1nnc(SCC=C(C)C)n1Cc1ccc2c(c1)OCO2 | GSK3-β; also recorded: GSK3-α
43 | COc1ccc(-c2nnc(SCC(=O)NNC(=O)c3ccc(Br)cc3)n2C)cc1 | CHEK2; also recorded: GSK3-β; also recorded: GSK3-α
44 | O=C(NCCSc1nnc(-c2cccc(C(F)(F)F)c2)[nH]1)c1ccccc1 | GSK3-β; also recorded: GSK3-α; also recorded: CHEK2
45 | CC(C)Sc1nnc(-c2ccc(NS(C)(=O)=O)cc2)n1C | CDK2-cyclinA
46 | COc1ccccc1-n1c(SCC(=O)Nc2ccc(Cl)cc2)nnc1-c1ccccc1O | KIT and AURORA-A
47 | COc1ccc(-n2c(CNc3ccc(C)cc3)nnc2SCc2ccccc2)cc1 | FLT-3; also recorded: PDGFRR-α
48 | CCCCNC(=O)CSc1nnc(-c2ccccc2O)n1-c1ccccc1OC | INSR and KIT and SYK
49 | COCCCn1c(SCC(=O)NN(O)C(=O)c2ccccc2)nnc1-c1ccncc1 | AURORA-A
50 | CN(C)CCCSc1nnc(-c2cccc(C(F)(F)F)c2)[nH]1 | CHEK2; also recorded: c-TAK1; also recorded: GSK3-β
51 | CN(C)CCCSc1nnc(-c2ccc(OC(F)(F)F)cc2)[nH]1 | c-TAK1; also recorded: AURORA-A; also recorded: CHEK2
52 | COc1ccc(-c2nnc(SCC(=O)NNC(=O)c3ccccc3O)n2-c2ccccc2)cc1OC | FYN and FLT-3
53 | COc1ccc(-n2c(SCC(=O)NNC(C)=O)nnc2-c2ccncc2)cc1 | FYN
54 | COc1ccccc1-n1c(SCCC(=O)OCc2ccccc2)nnc1C1CCCCC1 | AURORA-A
